Laboratory results: ChEMBL document CHEMBL1138719, “Tocopherol long chain fatty alcohols decrease the production of TNF-alpha and NO radicals by activated microglial cells” (Bioorg Med Chem Lett, 2004)
Activity calls are given as the source filed them. The calls are words filed in the database; no cut-off is given here.

Assays:
Format in all cases: functional, cell-based
MMGT12 [1] = experiment: inhibition of LPS-induced nitrite accumulation in mouse MMGT12 cells at 1e-6 M concentration; Slight inhibition
MMGT12 [2] = experiment: inhibition of LPS-induced TNF-alpha production in mouse MMGT12 cells at 1e-5 M concentration; Slight inhibition
MMGT12 [3] = experiment: inhibition of LPS-induced nitrite accumulation in mouse MMGT12 cells at 1e-5 M concentration; Strong inhibition inhibition
MMGT12 [4] = experiment: inhibition of LPS-induced TNF-alpha production in mouse MMGT12 cells at 1e-6 M; Major inhibition
MMGT12 [5] = experiment: inhibition of LPS-induced TNF-alpha production in mouse MMGT12 cells at 1e-5 M; Major inhibition
MMGT12 [6] = experiment: inhibition of LPS-induced TNF-alpha production in mouse MMGT12 cells at 1e-5 M to 1e-7 M concentration; No effect

SMILES | Activity (MMGT12 [1]) | Activity (MMGT12 [2]) | Activity (MMGT12 [3]) | Activity (MMGT12 [4]) | Activity (MMGT12 [5]) | Activity (MMGT12 [6])
Cc1c(C)c2c(c(C)c1O)CCC(C)(CCCCCCCCCCCCCCCCO)O2 (stereo unspecified) | Slight inhibition | Slight inhibition | Slight inhibition |  |  | 
Cc1c(C)c2c(c(C)c1O)CCC(C)(CCCCCCCCCCCCO)O2 (stereo unspecified) |  |  | Major inhibition | Major inhibition | Major inhibition | 
Cc1c(C)c2c(c(C)c1O)CCC(C)(CCC[C@H](C)CCCC(C)CCCC(C)C)O2 (single isomer, unassigned) |  |  |  |  |  | inactive
Cc1c(C)c2c(c(C)c1O)CCC(C)(CCCCCCCCCCO)O2 (stereo unspecified) |  |  |  |  |  | inactive
Cc1c(C)c2c(c(C)c1O)CCC(C)(CCCCCCCCCCCCCCO)O2 (stereo unspecified) |  |  | Major inhibition | Major inhibition | Major inhibition | 
